Results taken from patent US9029545B2, “Thienopyridine NOX2 inhibitors” (GlaxoSmithKline Intellectual Property Limited, priority 2009, dated 2015).
Where a name gives a salt, the structure may show the parent alone.

Each compound was assayed against T1, NOX2 in differentiated HL60 cells (Homo sapiens, UniProt P04839) (assay: HL60 cell-based assays (Assay 1 Oxyburst green BSA fluorescence, Assay 2 L-012 luminescence); result stated for at least one of them). Conditions: PMA-stimulated superoxide production in differentiated HL60 cells; at least one of Oxyburst and L012 assays; read-out: pIC50 in at least one of the HL60 assays (converted).
T1 construct: Differentiation of HL-60 cells to granulocytes increases NOX2 expression; endogenous in cells; host or cells: HL60 cells differentiated to neutrophil-like cells with 1.3% DMSO and stimulated with PMA
T1 sequence (P04839 1-570): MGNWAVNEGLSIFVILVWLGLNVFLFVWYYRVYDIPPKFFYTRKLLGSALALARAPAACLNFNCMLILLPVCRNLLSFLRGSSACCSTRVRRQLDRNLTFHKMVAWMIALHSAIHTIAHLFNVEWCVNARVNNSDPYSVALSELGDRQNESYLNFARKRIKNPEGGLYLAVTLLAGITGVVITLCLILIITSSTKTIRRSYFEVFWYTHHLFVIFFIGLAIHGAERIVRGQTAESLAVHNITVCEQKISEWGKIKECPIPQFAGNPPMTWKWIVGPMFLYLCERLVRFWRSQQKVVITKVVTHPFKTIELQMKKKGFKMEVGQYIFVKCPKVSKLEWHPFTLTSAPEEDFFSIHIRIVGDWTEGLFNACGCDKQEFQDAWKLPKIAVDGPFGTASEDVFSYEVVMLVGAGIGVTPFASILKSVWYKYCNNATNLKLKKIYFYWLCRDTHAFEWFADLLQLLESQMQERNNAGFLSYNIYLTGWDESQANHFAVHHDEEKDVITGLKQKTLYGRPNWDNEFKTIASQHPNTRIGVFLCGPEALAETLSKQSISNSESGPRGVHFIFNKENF
T1 sequence (P13498 1-195 partner): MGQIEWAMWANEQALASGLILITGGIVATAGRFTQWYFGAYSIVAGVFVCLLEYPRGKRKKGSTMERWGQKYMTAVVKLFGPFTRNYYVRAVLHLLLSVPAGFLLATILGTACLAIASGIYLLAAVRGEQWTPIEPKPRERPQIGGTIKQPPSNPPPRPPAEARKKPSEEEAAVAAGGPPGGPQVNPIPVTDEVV
Procedure: In the cell-based assay, superoxide production by NOX2 was measured in differentiated HL60 cells, a human myelomonocytic leukemia cell line, using either Oxyburst (Assay1) or L012 (Assay2). Differentiation of HL-60 cells to granulocytes increases NOX2 expression. The phorbol 12-myristate 13-acetate (PMA) was used to stimulate the production of superoxide in HL60 cells by activating protein kinase C, which then activated the NADPH oxidase (NOX) enzymes. Inhibition of NOX2 enzyme was detected by the reversal of fluorescence signal (Assay1) or luminescence signal (Assay2). The control inhibitor used was diphenyleneiodonium chloride (DPI), a […] inhibitor capable of non-selectively inhibiting superoxide produced by NOX enzymes.
Assay 1: in this high-throughput screening assay, oxyburst green bovine serum albumin (BSA) was used to detect superoxide production in HL60 cells. Oxidation of Oxyburst green BSA by hydrogen peroxide as a result of the activation of NOX2 by PMA. Oxyburst green BSA fluorescence was measured at excitation 485 nm and emission 530 nm.
Assay 2: in this assay, a chemiluminescence probe, L-012 was used to detect superoxide production in HL60 cells. L-012 reacted with various types of reactive oxygen species generated by PMA-activated HL60 cells. Luminescence was measured using Tecan Infinite 500.
The HL60 cells were differentiated into neutrophil-like cells by adding 1.3% DMSO in the media for 3-7 days (Hua, J et al. (2000) Journal of Leukocyte Biology. 68:216-224). Iscove's Modified Dulbecco's Media (IMDM) with L-Glutamine and 25 mM HEPES buffer, Fetal Bovine Serum (FBS), Penicillin/Streptomycin, Oxyburst Green BSA, PBS, and HBSS buffer with Calcium Chloride and Magnesium Chloride were purchased from Invitrogen (Catalog #s: 12440-061, 10500-064, 15140-163, O-13291, 14190-250, and 14025-134 respectively). Phorbol 12-myristate 13-acetate (PMA), glucose, and CHAPS were purchased from Sigma (Catalog #s: 79346, D-9434, and C5070 respectively). Diphenyleneiodonium chloride (DPI) was purchased from Toronto Research Chemicals (Catalog #: D491500). L-012 was purchased from Wako Chemical (Catalog #: 120-04891). Dimethyl sulfoxide (DMSO) was purchased EMD Chemicals (VWR Catalog #: MX1456-1). Multidrop combi was purchased from Thermo Electron Corporation (Waltham, Mass., USA). Hummingbird nanoliter liquid dispenser was purchased from Genomics Solution (Ann Arbor, Mich., USA). 384 well low-volume plates and polypropylene 384 well clear plates were purchased from Greiner (Catalog #: 784076 and 781280 respectively). 96 well plate and 384 well plate black assay plates were purchased from Greiner (Catalog #: 655094 and 781098). 96 well plate for compound serial dilution was purchased from Corning (Catalog #: 9017). Acquest or Analyst fluorescence plate reader was purchased from LJL Biosystems/Molecular Devices (California, USA). Tecan Infinite 500 was purchased from Tecan (Switzerland).
Media for HL60 cells were kept at 4° C. for storage and were warmed to 37° C. in a water bath before use. The media components were IMDM media with 20% FBS and 1% Penicillin/Streptomycin.
Buffer to be used for compound addition and compound dilution consisted of HBSS buffer with 0.1% glucose.
Buffer to be used for cells consisted of HBSS buffer with 0.1% glucose and 0.01% CHAPS.
HL60 cells were thawed and resuspended in Cells media. The cells were centrifuged at 1200 rpm for 8 minutes. Media was aspirated and the cells were resuspended in Cells buffer. The cells were counted and resuspended to 1×10^6 cells/mL.
Full inhibition controls were dispensed using 100 nL/well of 1 mM DPI in DMSO to column 18 of a 384 well plate. Compounds were dispensed using 100 nL/well. Full activity controls were dispensed using 100 nL/well of 4 uM PMA in DMSO. Oxyburst Green BSA was added to cell solution at 10 ug/mL. Using the Multidrop, 10 uL cell solution was added to the entire assay plate. The assay plate was incubated at room temperature for 100 minutes. […]

IC50, < 100 µM:
Cc1cc(NS(=O)(=O)c2cccc(Cl)c2)c2c(-c3cccc(CNC(=O)OC(C)(C)C)c3)c(C)sc2n1 [Example 70, 1,1-Dimethylethyl {[3-(4-{[(3-chlorophenyl)sulfonyl]amino}-2,6-dimethylthieno[2,3-b]pyridin-3-yl)phenyl]methyl}carbamate]
COc1cccc(-c2c(C)sc3nc(C)cc(NS(=O)(=O)c4cncc(Br)c4)c23)c1 [Example 52, 5-Bromo-N-{2,6-dimethyl-3-[3-(methyloxy)phenyl]thieno[2,3-b]pyridin-4-yl}-3-pyridinesulfonamide trifluoroacetate]
CCc1sc2nc(C)cc(NS(=O)(=O)c3cccc(Cl)c3)c2c1-c1cccc(N(C)C)c1 [Example 48, 3-Chloro-N-{3-[3-(dimethylamino)phenyl]-2-ethyl-6-methylthieno[2,3-b]pyridin-4-yl}benzenesulfonamide trifluoroacetate]
COC(=O)c1sc2nc(C)cc(NS(=O)(=O)c3cccc(Cl)c3)c2c1-c1cccc(OC)c1 [Example 36, Methyl 4-{[(3-chlorophenyl)sulfonyl]amino}-6-methyl-3-[3-(methyloxy)phenyl]thieno[2,3-b]pyridine-2-carboxylate]
Cc1cccc(-c2c(C)sc3nc(C)cc(NS(=O)(=O)c4cccc(Cl)c4)c23)c1 [Example 69, 3-Chloro-N-[2,6-dimethyl-3-(3-methylphenyl)thieno[2,3-b]pyridin-4-yl]benzenesulfonamide]
COc1cccc(-c2c(-c3cccnc3)sc3nc(C)cc(NS(=O)(=O)c4cccc(Cl)c4)c23)c1 [Example 41, 3-Chloro-N-[6-methyl-3-[3-(methyloxy)phenyl]-2-(3-pyridinyl)thieno[2,3-b]pyridin-4-yl]-benzenesulfonamide]
COc1cccc(-c2c(C)sc3nc(Cl)cc(NS(=O)(=O)c4cccc(Cl)c4)c23)c1 [Example 117, 3-Chloro-N-{6-chloro-2-methyl-3-[3-(methyloxy)phenyl]thieno[2,3-b]pyridin-4-yl}benzenesulfonamide]
COc1ccc(-c2csc3nc(C)cc(NS(=O)(=O)c4cccc(Cl)c4)c23)cc1OC [Example 47, N-{3-[3,4-Bis(methyloxy)phenyl]-6-methylthieno[2,3-b]pyridin-4-yl}-3-chlorobenzenesulfonamide trifluoroacetate]
COc1cccc(-c2c(C)sc3nc(C)cc(NS(=O)(=O)c4cccc(Cl)c4)c23)c1 [Example 1, 3-Chloro-N-{2,6-dimethyl-3-[3-(methyloxy)phenyl]thieno[2,3-b]pyridin-4-yl}-benzenesulfonamide]
COc1cncc(-c2c(C)sc3nc(C)cc(NS(=O)(=O)c4cccc(Cl)c4)c23)c1 [Example 67, 3-Chloro-N-{2,6-dimethyl-3-[5-(methyloxy)-3-pyridinyl]thieno[2,3-b]pyridin-4-yl}benzenesulfonamide]
Cc1cc(NS(=O)(=O)c2cccc(Cl)c2)c2c(Br)c(-c3cn[nH]c3)sc2n1 [Example 100, N-[3-Bromo-6-methyl-2-(1H-pyrazol-4-yl)thieno[2,3-b]pyridin-4-yl]-3-chlorobenzenesulfonamide]
COc1cccc(-c2c(C)sc3nc(C)cc(NS(=O)(=O)C4(Cl)CCN(C(=O)OCc5ccccc5)CC4)c23)c1 [Example 10, Phenylmethyl 4-chloro-4-[({2,6-dimethyl-3-[3-(methyloxy)phenyl]thieno[2,3-b]pyridin-4-yl}amino)sulfonyl]-1-piperidinecarboxylate]
COc1cccc(-c2csc3nccc(NS(=O)(=O)c4cccc(Cl)c4)c23)c1 [Example 62, 3-Chloro-N-{3-[3-(methyloxy)phenyl]thieno[2,3-b]pyridin-4-yl}benzenesulfonamide]
Cc1cc(NS(=O)(=O)c2cccc(Cl)c2)c2c(-c3cn[nH]c3)c(C)sc2n1 [Example 63, 3-Chloro-N-[2,6-dimethyl-3-(1H-pyrazol-4-yl)thieno[2,3-b]pyridin-4-yl]benzenesulfonamide]
COc1cccc(-c2c(C)sc3nc(C)cc(NS(=O)(=O)C4CCCCC4)c23)c1 [Example 8, N-{2,6-Dimethyl-3-[3-(methyloxy)phenyl]thieno[2,3-b]pyridin-4-yl}-cyclohexanesulfonamide]
COc1cccc(-c2c(C(C)C)sc3nc(C)cc(NS(=O)(=O)c4cccc(Cl)c4)c23)c1 [Example 45, 3-Chloro-N-{6-methyl-2-(1-methylethyl)-3-[3-(methyloxy)phenyl]thieno[2,3-b]pyridin-4-yl}-benzenesulfonamide trifluoroacetate]
Cc1cc(NS(=O)(=O)c2cccc(Cl)c2)c2c(C)c(-c3cn[nH]c3)sc2n1 [Example 76, 3-Chloro-N-[3,6-dimethyl-2-(1H-pyrazol-4-yl)thieno[2,3-b]pyridin-4-yl]benzenesulfonamide]
COc1cccc(-c2c(-c3ccoc3)sc3nc(C)cc(NS(=O)(=O)c4cccc(Cl)c4)c23)c1 [Example 57, 3-Chloro-N-{2-(3-furanyl)-6-methyl-3-[3-(methyloxy)phenyl]thieno[2,3-b]pyridin-4-yl}-benzenesulfonamide]
COc1cccc(-c2c(-c3cccs3)sc3nc(C)cc(NS(=O)(=O)c4cccc(Cl)c4)c23)c1 [Example 44, 3-Chloro-N-[6-methyl-3-[3-(methyloxy)phenyl]-2-(2-thienyl)thieno[2,3-b]pyridin-4-yl]-benzenesulfonamide]
COc1ccc(-c2c(C)sc3nc(C)cc(NS(=O)(=O)c4cccc(Cl)c4)c23)cc1 [Example 18, 3-Chloro-N-{2,6-dimethyl-3-[4-(methyloxy)phenyl]thieno[2,3-b]pyridin-4-yl}-benzenesulfonamide]
COc1cccc(-c2c(-c3ccco3)sc3nc(C)cc(NS(=O)(=O)c4cccc(Cl)c4)c23)c1 [Example 42, 3-Chloro-N-{2-(2-furanyl)-6-methyl-3-[3-(methyloxy)phenyl]thieno[2,3-b]pyridin-4-yl}-benzenesulfonamide]
